Numbering of substitutions follows the chain as printed.
Key:
Test in all cases: microscale thermophoresis, RED-NHS labelled protein
Assay type in all cases: binding
Sso2081 (Crn1) [1] = target: T1, Sso2081 (Crn1) (Saccharolobus solfataricus, UniProt Q7LYJ6, E17A)
T1 construct: full length aa 1-178; recombinant in E. coli Rosetta (DE3); N-terminal His6 tag cut with PreScission protease; homodimer
T1 sequence (Q7LYJ6 1-178 E17A): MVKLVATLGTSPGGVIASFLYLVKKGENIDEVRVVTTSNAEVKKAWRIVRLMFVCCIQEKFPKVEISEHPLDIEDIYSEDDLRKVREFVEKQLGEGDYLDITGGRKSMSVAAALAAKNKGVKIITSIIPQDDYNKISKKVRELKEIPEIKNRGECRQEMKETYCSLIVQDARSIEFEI

Sso2081 (Crn1) [2] = target: T2, Sso2081 (Crn1) (Saccharolobus solfataricus, UniProt Q7LYJ6, K106A)
T2 construct: full length aa 1-178; recombinant in E. coli Rosetta (DE3); N-terminal His6 tag cut with PreScission protease; homodimer
T2 sequence (Q7LYJ6 1-178 K106A): T1 sequence (Q7LYJ6 1-178 E17A) with A17E, K106A

Sso2081 (Crn1) [3] = target: T3, Sso2081 (Crn1) (Saccharolobus solfataricus, UniProt Q7LYJ6, S11A)
T3 construct: full length aa 1-178; recombinant in E. coli Rosetta (DE3); N-terminal His6 tag cut with PreScission protease; homodimer
T3 sequence (Q7LYJ6 1-178 S11A): T1 sequence (Q7LYJ6 1-178 E17A) with S11A, A17E

Sso2081 (Crn1) [4] = target: T4, Sso2081 (Crn1) (Saccharolobus solfataricus, UniProt Q7LYJ6, T10A)
T4 construct: full length aa 1-178; recombinant in E. coli Rosetta (DE3); N-terminal His6 tag cut with PreScission protease; homodimer
T4 sequence (Q7LYJ6 1-178 T10A): T1 sequence (Q7LYJ6 1-178 E17A) with T10A, A17E

Sso2081 (Crn1) [5] = target: T5, Sso2081 (Crn1) (Saccharolobus solfataricus, UniProt Q7LYJ6, D75A)
T5 construct: full length aa 1-178; recombinant in E. coli Rosetta (DE3); N-terminal His6 tag cut with PreScission protease; homodimer
T5 sequence (Q7LYJ6 1-178 D75A): T1 sequence (Q7LYJ6 1-178 E17A) with A17E, D75A

In the case of `Nc1ncnc2c1ncn2[C@@H]1O[C@@H]2COP(=O)(O)O[C@H]3[C@@H](O)[C@H](n4cnc5c(N)ncnc54)O[C@@H]3COP(=O)(O)O[C@H]3[C@@H](O)[C@H](n4cnc5c(N)ncnc54)O[C@@H]3COP(=O)(O)O[C@H]3[C@@H](O)[C@H](n4cnc5c(N)ncnc54)O[C@@H]3COP(=O)(O)O[C@H]2[C@H]1O` [cA4], the Kd (Sso2081 (Crn1) [1]) is reported as 17 ± 1.2 nM, the Kd (Sso2081 (Crn1) [2]) is reported as 22.8 ± 10.1 nM and the Kd (Sso2081 (Crn1) [3]) is reported as 43.2 ± 25.5 nM. For the same compound, the Kd (Sso2081 (Crn1) [4]) was 17.3 ± 9.2 nM and the Kd (Sso2081 (Crn1) [5]) was 75.5 ± 34.1 nM.
